Results: publication PMC9908924, “Accelerating inhibitor discovery for deubiquitinating enzymes” (Nature Communications, 2023)
pIC50: −log10 of the molar value.

Tests used:
[1] = biological target: T1, UCHL1 (Homo sapiens, UniProt P09936); assay: active-site cysteine modification (in-house validation); type: binding; settings: covalent
T1 construct: full length residues 1-223, N-terminal GST tag (pGEX6P1), 3C protease elution, E. coli BL21(DE3)
T1 sequence (P09936 1-223): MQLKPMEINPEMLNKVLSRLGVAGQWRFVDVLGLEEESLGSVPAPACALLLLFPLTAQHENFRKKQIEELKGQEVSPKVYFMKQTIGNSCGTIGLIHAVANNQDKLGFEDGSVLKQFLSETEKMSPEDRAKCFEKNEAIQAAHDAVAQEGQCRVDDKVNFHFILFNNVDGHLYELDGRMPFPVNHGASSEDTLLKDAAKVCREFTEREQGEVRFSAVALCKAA

[2] = biological target: T2, USP40 (Homo sapiens, UniProt Q9NVE5); assay: DUB-ABPP competition with biotin-Ub-PA / biotin-Ub-VME, TMT MS; type: biochemical; settings: chloroacetamide; 10 µM
T2 construct: endogenous full-length protein in HEK293T lysate
T2 sequence (Q9NVE5 1-1235): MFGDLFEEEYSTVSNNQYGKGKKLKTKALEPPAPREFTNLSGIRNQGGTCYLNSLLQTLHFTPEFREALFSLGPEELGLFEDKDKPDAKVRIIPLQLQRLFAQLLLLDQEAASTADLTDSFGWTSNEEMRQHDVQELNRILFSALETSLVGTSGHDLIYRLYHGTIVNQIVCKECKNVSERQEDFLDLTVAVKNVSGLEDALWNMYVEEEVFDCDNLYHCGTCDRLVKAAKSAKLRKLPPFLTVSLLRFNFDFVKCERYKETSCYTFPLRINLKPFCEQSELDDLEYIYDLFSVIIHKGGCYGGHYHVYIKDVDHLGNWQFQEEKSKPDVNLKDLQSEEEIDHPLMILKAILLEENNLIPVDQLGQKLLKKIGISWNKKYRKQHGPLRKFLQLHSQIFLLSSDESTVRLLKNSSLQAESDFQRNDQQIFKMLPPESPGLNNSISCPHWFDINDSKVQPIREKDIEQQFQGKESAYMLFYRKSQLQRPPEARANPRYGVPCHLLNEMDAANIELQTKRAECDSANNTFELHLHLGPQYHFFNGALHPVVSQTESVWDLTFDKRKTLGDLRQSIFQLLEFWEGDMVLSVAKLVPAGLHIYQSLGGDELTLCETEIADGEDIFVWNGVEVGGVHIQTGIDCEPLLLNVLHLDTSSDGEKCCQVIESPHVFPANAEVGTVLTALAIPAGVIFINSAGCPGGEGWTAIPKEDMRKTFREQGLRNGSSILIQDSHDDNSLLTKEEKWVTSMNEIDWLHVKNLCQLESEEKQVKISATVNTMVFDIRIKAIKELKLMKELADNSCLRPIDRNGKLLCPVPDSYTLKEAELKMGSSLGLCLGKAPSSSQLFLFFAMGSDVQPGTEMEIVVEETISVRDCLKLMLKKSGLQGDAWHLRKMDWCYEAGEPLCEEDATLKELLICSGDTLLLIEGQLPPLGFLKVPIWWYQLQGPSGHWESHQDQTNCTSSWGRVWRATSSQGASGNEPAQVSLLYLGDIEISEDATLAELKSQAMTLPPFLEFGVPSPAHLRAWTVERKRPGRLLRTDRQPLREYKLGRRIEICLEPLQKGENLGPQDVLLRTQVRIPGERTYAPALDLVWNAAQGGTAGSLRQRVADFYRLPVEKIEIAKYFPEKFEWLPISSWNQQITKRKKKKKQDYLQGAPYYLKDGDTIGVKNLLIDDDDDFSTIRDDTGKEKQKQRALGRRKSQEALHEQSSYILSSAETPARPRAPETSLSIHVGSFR

[3] = biological target: T3, VCPIP1 (Homo sapiens, UniProt Q96JH7); assay: targeted cysteine chemoproteomics (PRM-LIVE); type: biochemical; settings: covalent (catalytic cysteine); 50 µM compound in cell extract
T3 construct: endogenous full-length protein in HEK293 / HEK293T cell extract
T3 sequence (Q96JH7 1-1222): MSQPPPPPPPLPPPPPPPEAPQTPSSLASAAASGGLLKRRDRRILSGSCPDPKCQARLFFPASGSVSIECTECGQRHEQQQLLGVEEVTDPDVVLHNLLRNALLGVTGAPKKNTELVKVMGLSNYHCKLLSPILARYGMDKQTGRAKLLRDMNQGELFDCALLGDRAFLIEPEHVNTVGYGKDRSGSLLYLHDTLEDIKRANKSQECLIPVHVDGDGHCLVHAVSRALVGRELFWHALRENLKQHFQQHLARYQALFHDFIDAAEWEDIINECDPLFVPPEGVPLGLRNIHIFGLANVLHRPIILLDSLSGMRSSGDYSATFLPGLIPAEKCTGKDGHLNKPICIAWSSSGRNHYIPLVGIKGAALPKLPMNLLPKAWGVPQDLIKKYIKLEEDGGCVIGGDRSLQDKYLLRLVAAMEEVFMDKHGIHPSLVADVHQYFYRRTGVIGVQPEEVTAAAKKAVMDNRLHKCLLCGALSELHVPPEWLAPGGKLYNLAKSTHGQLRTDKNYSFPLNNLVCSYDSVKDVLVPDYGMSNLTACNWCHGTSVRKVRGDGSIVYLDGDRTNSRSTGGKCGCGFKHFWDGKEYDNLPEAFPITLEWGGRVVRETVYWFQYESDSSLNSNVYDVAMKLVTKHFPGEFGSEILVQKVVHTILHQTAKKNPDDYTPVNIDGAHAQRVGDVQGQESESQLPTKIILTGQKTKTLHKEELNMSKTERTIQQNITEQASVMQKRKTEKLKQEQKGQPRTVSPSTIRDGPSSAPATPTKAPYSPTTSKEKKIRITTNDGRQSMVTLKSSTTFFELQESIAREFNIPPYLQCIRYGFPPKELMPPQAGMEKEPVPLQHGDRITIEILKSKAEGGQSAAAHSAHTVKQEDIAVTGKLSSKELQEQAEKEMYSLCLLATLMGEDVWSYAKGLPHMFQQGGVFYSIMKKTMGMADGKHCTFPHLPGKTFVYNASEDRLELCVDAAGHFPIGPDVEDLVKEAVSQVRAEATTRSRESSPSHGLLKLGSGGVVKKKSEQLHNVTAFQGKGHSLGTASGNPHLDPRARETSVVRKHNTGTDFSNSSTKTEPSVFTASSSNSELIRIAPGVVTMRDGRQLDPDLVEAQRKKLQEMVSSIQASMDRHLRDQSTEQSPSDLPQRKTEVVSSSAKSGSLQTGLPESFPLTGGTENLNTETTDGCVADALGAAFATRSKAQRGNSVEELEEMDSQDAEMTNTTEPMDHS

[4] = biological target: T4, BAP1 (Homo sapiens, UniProt Q92560); assay: DUB-ABPP competition with biotin-Ub-PA / biotin-Ub-VME, TMT MS; type: biochemical; settings: chloroacetamide; 50 µM
T4 construct: endogenous full-length protein in HEK293T lysate
T4 sequence (Q92560 1-729): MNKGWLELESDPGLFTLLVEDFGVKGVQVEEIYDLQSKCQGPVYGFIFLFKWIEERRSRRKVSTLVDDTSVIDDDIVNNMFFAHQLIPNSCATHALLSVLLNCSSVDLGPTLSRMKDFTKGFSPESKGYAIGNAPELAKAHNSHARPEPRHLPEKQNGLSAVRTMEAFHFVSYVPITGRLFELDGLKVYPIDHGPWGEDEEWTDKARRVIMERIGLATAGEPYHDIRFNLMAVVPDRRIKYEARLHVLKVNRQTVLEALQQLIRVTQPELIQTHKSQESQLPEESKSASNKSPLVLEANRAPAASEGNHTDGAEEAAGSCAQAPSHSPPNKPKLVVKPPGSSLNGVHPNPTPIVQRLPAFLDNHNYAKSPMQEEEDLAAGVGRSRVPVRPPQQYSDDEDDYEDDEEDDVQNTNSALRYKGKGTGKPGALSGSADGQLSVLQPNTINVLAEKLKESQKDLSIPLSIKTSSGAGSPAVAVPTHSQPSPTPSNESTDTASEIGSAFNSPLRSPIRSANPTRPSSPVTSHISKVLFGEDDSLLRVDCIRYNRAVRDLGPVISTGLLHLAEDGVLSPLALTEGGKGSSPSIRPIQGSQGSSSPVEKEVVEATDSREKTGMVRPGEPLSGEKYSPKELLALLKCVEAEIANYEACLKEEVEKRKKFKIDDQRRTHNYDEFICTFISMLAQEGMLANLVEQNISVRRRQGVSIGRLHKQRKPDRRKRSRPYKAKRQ

[5] = biological target: T5, USP7 (Homo sapiens, UniProt Q93009); assay: as above; type: biochemical; settings: covalent inhibitor
T5 construct: endogenous full-length protein in HEK293T lysate
T5 sequence (Q93009 whole entry): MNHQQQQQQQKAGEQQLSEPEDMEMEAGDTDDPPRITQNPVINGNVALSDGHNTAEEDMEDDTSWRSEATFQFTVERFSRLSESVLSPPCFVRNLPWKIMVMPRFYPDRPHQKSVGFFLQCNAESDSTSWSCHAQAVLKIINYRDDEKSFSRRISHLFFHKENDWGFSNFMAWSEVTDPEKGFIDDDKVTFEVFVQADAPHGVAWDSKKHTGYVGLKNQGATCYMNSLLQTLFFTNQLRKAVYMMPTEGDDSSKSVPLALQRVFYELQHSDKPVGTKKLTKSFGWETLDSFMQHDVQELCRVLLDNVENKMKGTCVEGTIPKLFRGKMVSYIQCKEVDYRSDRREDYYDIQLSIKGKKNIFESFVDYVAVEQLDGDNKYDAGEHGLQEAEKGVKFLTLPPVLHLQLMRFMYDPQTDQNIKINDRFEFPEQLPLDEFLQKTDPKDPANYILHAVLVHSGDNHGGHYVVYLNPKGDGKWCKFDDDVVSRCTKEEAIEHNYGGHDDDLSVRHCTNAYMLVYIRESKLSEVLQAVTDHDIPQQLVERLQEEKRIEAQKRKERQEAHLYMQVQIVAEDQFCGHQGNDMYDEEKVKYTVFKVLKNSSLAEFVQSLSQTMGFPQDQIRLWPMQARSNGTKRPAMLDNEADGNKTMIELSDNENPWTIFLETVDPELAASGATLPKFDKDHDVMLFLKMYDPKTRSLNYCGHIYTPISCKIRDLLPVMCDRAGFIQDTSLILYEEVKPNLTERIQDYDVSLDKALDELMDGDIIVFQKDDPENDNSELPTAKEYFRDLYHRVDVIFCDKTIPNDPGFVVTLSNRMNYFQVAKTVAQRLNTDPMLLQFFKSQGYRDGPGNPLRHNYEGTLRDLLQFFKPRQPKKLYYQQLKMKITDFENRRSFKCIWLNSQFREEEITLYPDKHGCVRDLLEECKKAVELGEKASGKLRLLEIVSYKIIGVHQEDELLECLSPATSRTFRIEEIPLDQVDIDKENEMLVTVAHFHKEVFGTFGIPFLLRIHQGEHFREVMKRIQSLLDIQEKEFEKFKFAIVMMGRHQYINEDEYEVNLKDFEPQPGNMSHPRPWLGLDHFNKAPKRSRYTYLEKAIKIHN

[6] = biological target: T6, USP22 (Homo sapiens, UniProt Q9UPT9); parameters: ubiquitin-rhodamine cleavage by purified DUB, fluorescence initial rate, 6 h pre-incubation with inhibitor; settings: n=1; inhibitor
T6 construct: purified enzyme
T6 sequence (Q9UPT9 1-525): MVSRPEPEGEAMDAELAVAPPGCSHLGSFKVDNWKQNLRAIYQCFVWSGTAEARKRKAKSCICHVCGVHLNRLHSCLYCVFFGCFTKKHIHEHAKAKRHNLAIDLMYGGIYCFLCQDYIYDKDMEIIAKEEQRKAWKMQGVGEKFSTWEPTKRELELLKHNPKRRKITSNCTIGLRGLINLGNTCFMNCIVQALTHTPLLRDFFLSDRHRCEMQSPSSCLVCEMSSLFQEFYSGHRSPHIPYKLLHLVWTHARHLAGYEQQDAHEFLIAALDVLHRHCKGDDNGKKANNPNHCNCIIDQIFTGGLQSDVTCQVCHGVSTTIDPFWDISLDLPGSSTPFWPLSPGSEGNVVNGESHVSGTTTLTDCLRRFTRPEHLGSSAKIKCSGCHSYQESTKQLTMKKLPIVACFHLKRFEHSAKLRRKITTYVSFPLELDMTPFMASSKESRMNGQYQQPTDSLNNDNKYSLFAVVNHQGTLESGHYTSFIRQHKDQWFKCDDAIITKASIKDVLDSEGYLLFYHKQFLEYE

## N#CN1CCC(C(=O)Nc2cn(Cc3ccccc3)cn2)C1 (stereo not drawn) [SB1-F-22]
[1]
  active-site cysteine modification (in-house validation): validated in-house to modify the active site cysteine of UCHL1

## COc1ccc(C(=O)NCC2CN(C(=O)CCl)C2)cc1 [V08]
[2]
  DUB-ABPP competition with biotin-Ub-PA / biotin-Ub-VME, TMT MS: USP16 (V03), and USP40 (V08, V09)

## O=C(NCC1CN(C(=O)CCl)C1)c1ccccc1 [WH-9943-103C]
[3]
  % target occupancy at 50 μM: ~ 78%
[4]
  DUB-ABPP competition with biotin-Ub-PA / biotin-Ub-VME, TMT MS: hit several DUBs including VCPIP1 (WH-9943-103C), BAP1 (WH-9943-103C)

## CN1CCN(CCC(=O)Nc2ccc3c(=O)n(CC4(O)CCN(C(=O)[C@@H](CCCNC(=O)c5ccc6c(Cl)c7c(nc6c5)CCCC7)Cc5ccccc5)CC4)cnc3c2)CC1 [XL177A]
[5]
  DUB-ABPP competition with biotin-Ub-PA / biotin-Ub-VME, TMT MS: recapitulated the DUB binding profiles expected for our selective chemotypes

## O=C(CCl)N1CCC(O)(CNc2ncc3ccccc3n2)CC1 [XL_10320_009A]
[6]
  pIC50: 4.03
